# According to patent publication US20260262643A1, “HERBICIDAL BENZOXAZINES” (FMC CORPORATION, priority 2022, published 2026):
# How the values were obtained:
# [1] = test system: barnyardgrass; experiment: Test C preemergence; assay type: in vivo, Echinochloa crusgalli; conditions: Preemergence, 1000 g ai/ha; visual rating after 10 days, 0 to 100 scale (0 no effect, 100 complete control)
# Description: (§1) Seeds of plant species selected from barnyardgrass (Echinochloa crusgalli), blackgrass (Alopecurus myosuroides), corn (Zea mays), foxtail, giant (giant foxtail, Setaria faberi), green foxtail (Setaria viridis), goosegrass (Eleusine indica), kochia (Bassia scoparia), oat, wild (wild oat, Avena fatua), pigweed, palmer (palmer amaranth, palmer pigweed, Amaranthus palmeri), Pigweed, Redroot (redroot pigweed, Amaranthus retroflexus), ragweed (common ragweed, Ambrosia artemisiifolia), ryegrass, Italian ([…] ryegrass, Lolium multiflorum), soybean (Glycine max), and wheat (Triticum aestivum) were planted into a blend of loam soil and sand and treated preemergence with a directed soil spray using test chemicals formulated in a non-phytotoxic solvent mixture which included a surfactant. At the same time, plants selected from these crops and weed species and also galium (catchweed bedstraw, Galium aparine) and horseweed (Erigeron canadensis) were planted in pots containing the same blend of loam soil and sand and treated with postemergence applications of test chemicals formulated in the same manner. Plants ranged in height from 2 to 10 cm and were in the one- to two-leaf stage for the postemergence treatment. Treated plants and untreated controls were maintained in a greenhouse for 10 days, after which time all treated plants were compared to untreated controls and visually evaluated for injury. Plant response ratings, summarized in Table C, are based on a 0 to 100 scale where 0 is no effect and 100 is complete control. A dash (-) response means no test result.
# [2] = test system: blackgrass; experiment: Test C preemergence; assay type: in vivo, Alopecurus myosuroides; conditions: Preemergence, 1000 g ai/ha; visual rating after 10 days, 0 to 100 scale (0 no effect, 100 complete control)
# Description: as §1
# [3] = test system: green foxtail; experiment: Test C preemergence; assay type: in vivo, Setaria viridis; conditions: Preemergence, 1000 g ai/ha; visual rating after 10 days, 0 to 100 scale (0 no effect, 100 complete control)
# Description: as §1
# [4] = test system: kochia; experiment: Test C preemergence; assay type: in vivo, Bassia scoparia; conditions: Preemergence, 1000 g ai/ha; visual rating after 10 days, 0 to 100 scale (0 no effect, 100 complete control)
# Description: as §1
# [5] = test system: pigweed, palmer; experiment: Test C preemergence; assay type: in vivo, Amaranthus palmeri; conditions: Preemergence, 1000 g ai/ha; visual rating after 10 days, 0 to 100 scale (0 no effect, 100 complete control)
# Description: as §1
# [6] = test system: ragweed; experiment: Test C preemergence; assay type: in vivo, Ambrosia artemisiifolia; conditions: Preemergence, 1000 g ai/ha; visual rating after 10 days, 0 to 100 scale (0 no effect, 100 complete control)
# Description: as §1
# [7] = test system: ryegrass, Italian; experiment: Test C preemergence; assay type: in vivo, Lolium multiflorum; conditions: Preemergence, 1000 g ai/ha; visual rating after 10 days, 0 to 100 scale (0 no effect, 100 complete control)
# Description: as §1
# [8] = test system: barnyardgrass; experiment: Test C postemergence; assay type: in vivo, Echinochloa crusgalli; conditions: Postemergence, 1000 g ai/ha
# Description: as §1
# [9] = test system: blackgrass; experiment: Test C postemergence; assay type: in vivo, Alopecurus myosuroides; conditions: Postemergence, 1000 g ai/ha, 10 days, visual 0 to 100 scale (0 no effect, 100 complete control)
# Description: as §1
# [10] = test system: green foxtail; experiment: Test C postemergence; assay type: in vivo, Setaria viridis; conditions: Postemergence, 1000 g ai/ha, 10 days, visual 0 to 100 scale (0 no effect, 100 complete control)
# Description: as §1
# [11] = test system: kochia; experiment: Test C postemergence; assay type: in vivo, Bassia scoparia; conditions: Postemergence, 1000 g ai/ha, 10 days, visual 0 to 100 scale (0 no effect, 100 complete control)
# Description: as §1
# [12] = test system: pigweed, palmer; experiment: Test C postemergence; assay type: in vivo, Amaranthus palmeri; conditions: Postemergence, 1000 g ai/ha, 10 days, visual 0 to 100 scale (0 no effect, 100 complete control)
# Description: as §1
# [13] = test system: ragweed; experiment: Test C postemergence; assay type: in vivo, Ambrosia artemisiifolia; conditions: Postemergence, 1000 g ai/ha, 10 days, visual 0 to 100 scale (0 no effect, 100 complete control)
# Description: as §1
# [14] = test system: ryegrass, Italian; experiment: Test C postemergence; assay type: in vivo, Lolium multiflorum; conditions: Postemergence, 1000 g ai/ha, 10 days, visual 0 to 100 scale (0 no effect, 100 complete control)
# Description: as §1
# [15] = test system: galium; experiment: Test C postemergence; assay type: in vivo, Galium aparine; conditions: Postemergence, 1000 g ai/ha, 10 days, visual 0 to 100 scale (0 no effect, 100 complete control)
# Description: as §1
# [16] = test system: horseweed; experiment: Test C postemergence; assay type: in vivo, Erigeron canadensis; conditions: Postemergence, 1000 g ai/ha, 10 days, visual 0 to 100 scale (0 no effect, 100 complete control)
# Description: as §1
# [17] = 0 to 100 scale, 0 no effect, 100 complete control
SMILES,"Plant response rating, Barnyardgrass [1]","Plant response rating, Blackgrass [2]","Plant response rating, Foxtail, Green [3]","Plant response rating, Kochia [4]","Plant response rating, Pigweed, Palmer [5]","Plant response rating, Ragweed [6]","Plant response rating, Ryegrass, Italian [7]","Plant response rating, Barnyardgrass ([8]; 10 days, visual 0 to 100 scale (0 no effect, 100 complete control))","Plant response rating, Blackgrass [9]","Plant response rating, Foxtail, Green [10]","Plant response rating, Kochia [11]","Plant response rating, Pigweed, Palmer [12]","Plant response rating, Ragweed [13]","Plant response rating, Ryegrass, Italian [14]","Plant response rating, Galium [15]","Plant response rating, Horseweed [16]","Plant response rating, Barnyardgrass [8, 17]"
C[C@H]1CN(C(=O)c2cccc(-c3cn(C)cn3)c2)c2cccc(Cl)c2O1 [Compound 293],0,0,0,0,10,0,0,0,0,0,0,10,0,0,0,30,–
C[C@H]1CN(C(=O)c2cccc(-c3ccn(C)n3)c2)c2cccc(Cl)c2O1 [Compound 205],0,0,40,50,60,0,40,–,30,30,50,30,20,40,0,0,10
Cc1ccn(-c2cccc(C(=O)N3C[C@H](C)Oc4c(Cl)cccc43)c2)n1 [Compound 206],30,0,20,10,30,0,80,–,0,0,20,50,0,40,40,0,0
Cc1cccc2c1O[C@@H](C)CN2C(=O)c1cccc(-c2cn(C)nn2)c1 [Compound 247],0,0,0,0,–,0,30,–,0,30,0,10,0,0,20,20,10
